Reference: patent US20210128537A1, “T-TYPE CALCIUM CHANNEL MODULATORS AND METHODS OF USE THEREOF” (Praxis Precision Medicines, inc., priority 2016, published 2021)

Experiments:
Assay type in all cases: in vivo, rat
[1] = test system: post-SE rats; test: Forced swim test in post-SE rats; settings: Z944 60 mg/kg/day for 4 weeks, p<0.05
Method: All behavioural tests were performed in a light-controlled (˜110 lux), closed, quiet and clean room in the. Behavioural testing was performed in a blinded manner to the treatment groups. All of the behavioural tests were video recorded for future analysis. OF, EPM and MWM sessions were filmed using a digital camera mounted above the centre of the arena, which was connected to a computer for the recording and objective analysis of digitized behavioural tests (EthoVision 3.0.15, Noldus). The first behavioural test was performed one week after the last EEG recording. The different behavioural tests/session were performed 24 hours apart from each other. All tests were scored by an experienced observer who was blind to the experimental conditions of the animals.
The FST was performed in a clear Plexiglas cylinder (50 cm long×30 cm diameter) filled with water (25±1° C.). The FST was divided into a 15-min training session and a 5-min test session performed 24 h later, as previously described. Immobility time and swimming time were analysed.

[2] = test system: Wistar rats, amygdala kindling; test: Progression of seizures in the amygdala kindling model
Method: (§1) Animals were implanted with EEG recording electrodes and with a stimulating bipolar electrode in the left basolateral amygdaloid nucleus using the coordinates AP±3.0 mm, ML±5.9 mm, DV±6.0 mm. The after discharge threshold (ADT) for each animal was determined by administering a stimulation (frequency=60.1 Hz; duration=1000 μs) at one minute intervals until a seizure was clicited. The amplitude of the stimulation was started at 0.02 mA with increments of 0.02 mA; the stimulations were stopped when the animal experienced a seizure of ≥6 second duration, or if the amplitude of 0.40 mA was reached without the occurrence of a seizure. […] Kindling was performed twice a day for five days per week with an endpoint of 30 stimulations or until the animal presented five class V seizures (referred to as fully kindled). The seizure severity was classified from 0 (less severe) to V (most severe) according to the Racine Scale (Racine, 1972b). Sham kindled animals were handled the same way as the kindled animals, although no electrical stimulation was applied. An animal is classified as fully kindled once it has experienced 5 class V seizures.
Testing Z944 in the progression of seizures in the amygdala kindling model Wistar rats underwent surgery to implant bipolar stimulation electrodes and EEG recording electrodes as described above. ADT was determined as described for the anti-seizure study. Animals were randomly assigned to four different cohorts; Cohort 1: kindled sham+vehicle (n=8); Cohort 2: kindled+vehicle (n=6); Cohort 3: kindled+ETX (100 mg/kg, n=6) and Cohort 4: kindled+Z944 (30 mg/kg, n=7). Thirty minutes prior each kindling stimulation, the animals received an IP injection of vehicle, ETX, or Z944 administered at a dose volume of 5 ml/kg up to an endpoint of 30 stimulations and the seizure class elicited and seizure duration was recorded. […] Adverse effects were recorded every 15 minutes from the drug administration until 90 minutes after. An investigator blinded to the drug treatment analyzed all EEG recordings. The seizure class each stimulation elicited was recorded and averaged and the duration of the primary and total seizures were recorded.

[3] = test system: fully kindled rats; test: Amygdala kindling model, anti-seizure testing in fully kindled rats
Method: as §1
Drug testing was performed twice a week until all animals had received each of the seven treatments, Z944 (5 mg/kg, 10 mg/kg, 30 mg/kg and 100 mg/kg), vehicle (10% DMSO/90% Na^+-CMC or CBZ vehicle 20% DMSO/40% propylene glycol/40% saline), ETX (100 mg/kg) or CBZ (30 mg/kg). Prior to drug testing each day, animals were subjected to a maximum of three pre-drug stimulations 30 minutes apart. The animals qualified for testing on that particular day if a class IV or V seizure was elicited in at least 2 out of 3 pre-drug stimulations. Stimulations consisted of a 1 second train of 1 ms biphasic square wave pulses at a frequency of 60 Hz with current amplitude based on each animal ADT that elicited a seizure. Thirty minutes after the last pre-drug stimulation, the animals received an IP injection of one of the seven treatments in a randomized manner at a dose volume of 5 ml/kg. Six post-drug stimulations were administered to each animal, the first stimulation was given 15 minutes post drug injection (to allow brain penetration of the drugs) and the following five stimulations were delivered in 30 minutes intervals thereafter with the seizure class elicited being recorded after each post-drug stimulation. The duration of the primary and total seizures, if any, were recorded. An investigator blinded to the drug treatment analyzed all EEG recordings. Primary after discharge is the duration of the seizure elicited from the kindling stimulation. Total after discharge is the total seizure duration including any secondary seizures that occur after the primary after discharge. Primary after discharge duration and total seizure duration were recorded and averaged for the 6 post-drug stimulations.
Animal weight and behaviour when handled were monitored for the duration of the experimental period. Additionally, animals were assessed by observation for any adverse effects of drugs on grooming, fur appearance, gait, and excretion.

## CC(C)(C)NC(=O)CN1CCC(CNC(=O)c2cc(F)cc(Cl)c2)CC1 [Z944]
[1]
  forced swim test immobility time: vehicle had an increased immobility time when compared to both sham groups and post-SE+Z944 group
[2]; 30 mg/kg IP 30 min prior each stimulation, vs vehicle
  number of stimulations to evoke a class III, IV or V seizure: required significantly more stimulations
[2]; 30 mg/kg IP, n=7, up to 30 stimulations
  number of treated animals that reached the fully kindled state: one
[2]; 30 mg/kg IP, vs ETX 100 mg/kg (p<0.01)
  number of stimulations to reach class V: required more stimulations
[2]; 30 mg/kg IP, vs vehicle (p<0.01) and ETX (p<0.05)
  number of stimulations to reach the fully kindled state: required significantly more stimulations
[3]; IP, Z944 5, 10, 30, 100 mg/kg, CBZ 30 mg/kg, compared to vehicle
  seizure class elicited (Racine scale): does not suppress seizures
[3]; IP, all four doses of Z944, ETX 100 mg/kg, CBZ 30 mg/kg, compared to vehicle (p>0.5)
  primary after discharge: did not affect the primary after discharge
[3]; Z944 100 mg/kg, CBZ 30 mg/kg IP, p<0.01
  adverse effects (sedation scale 0-4) compared to vehicle: significantly higher adverse effects
[3]; Z944 5 to 100 mg/kg IP
  adverse effects (sedation scale 0-4), dose dependence: dose dependent
